Data taken from patent US5473096A, “Substituted benzoate derivatives” (Shionogi & Co., Ltd., priority 1992, dated 1995).

Each molecule was assayed against T1, PLA2 (phospholipase A2) from rat platelets (Rattus norvegicus, UniProt P14423) (assay: Phospholipase A2 inhibitory activity (release of free fatty acid from 14C-labelled phosphatidylethanolamine)). Conditions: rat platelet PLA2; Tris-buffer 0.1M, pH 7.4; CaCl2 3 mM; 37° C., 20 minutes.
T1 construct: from tissue; host or cells: rat platelets
T1 sequence (P14423 22-146): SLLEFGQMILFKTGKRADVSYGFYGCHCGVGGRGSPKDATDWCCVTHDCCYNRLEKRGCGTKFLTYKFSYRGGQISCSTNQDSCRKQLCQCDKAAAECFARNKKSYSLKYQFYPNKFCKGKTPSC
Format: biochemical
Protocol: The compounds of the present invention were tested for their Phospholipase A2 inhibitory activity by the following procedure.
1-Palmitoyl-2-[1-^14 C]-linoleoyl L-3-Phosphatidylethanolamine (Amersham, Inc., 59 mCi/mmol) were diluted with L-α-phosphatidylethanolamine (Sigma, Co., from […]) [2,000 dpm/nmol], and the dilution was sonicated. The resultant dilution was used as a substrate. The PLA2 (phospholipase A2) which was used in the test was from rat platelets. The PLA2 and the substrate preparation were added to a solution of CaCl2 (3 mM)in Tris-buffer (0.1M, pH 7.4), and the mixture was allowed to react at 37° C. for 20 minutes. Then, the reaction was terminated by adding 1.25 ml of Dole's reagent to the reaction mixture and stirring immediately the resultant mixture. To the mixture was added 0.5 ml of distilled water and 0.8 ml of n-heptane, and the mixture was stirred, centrifuged, and the resulting supernatant was taken into another tube. To this supernatant were added additional 0.8 ml of n-heptane and silica gel, and the mixture was stirred, centrifuged, and then the supernatant was taken into vials. Toluene cocktails were added to the vials. The amount of free fatty acid released from PLA2 (DPM value) was determined using liquid scintillation counter.
Inhibitory activity (%) was estimated by the formula: [(DPM value at the addition of the inhibitor-DPM value without PLA2)/(DPM value with only PLA2 -DPM value without PLA2)]×100.

| IC50 [µM] | SMILES |
| --- | --- |
| 0.026 | COc1c(C)c(OC(=O)c2c(C)c(C)c(OC(=O)c3c(C)c(CNCC(=O)OCc4ccccc4)c(O)c(C)c3O)c(C)c2OC)c(C)c(C)c1C(=O)O [Compound 1a, 4-[4'-(4"-Carboxy-3"-methoxy-2",5",6"-trimethylphenoxycarbony)-3'-methoxy-2',5',6'-trimethylphenoxycarbonyl]-2,5-dimethyl-6-benzyloxyglycylmethylresorcinol] |
| 0.17 | CCOC(=O)CNCc1c(C)c(C(=O)Oc2c(C)c(C)c(C(=O)Oc3c(C)c(C)c(C(=O)O)c(OC)c3C)c(OC)c2C)c(O)c(C)c1O [Compound 1b] |
| 0.16 | COc1ccc(CCOCc2c(C)c(C(=O)Oc3c(C)c(C)c(C(=O)Oc4c(C)c(C)c(C(=O)O)c(OC)c4C)c(OC)c3C)c(O)c(C)c2O)cc1 [Compound 1c] |
| 0.12 | CCCCOCc1c(C)c(C(=O)Oc2c(C)c(C)c(C(=O)Oc3c(C)c(C)c(C(=O)O)c(OC)c3C)c(OC)c2C)c(O)c(C)c1O [Compound 1d] |
| 1.1 | COc1c(C)c(OC(=O)c2c(C)c(C)c(OC(=O)c3c(C)c(CNCCCCC(NC(=O)OCc4ccccc4)C(N)=O)c(O)c(C)c3O)c(C)c2OC)c(C)c(C)c1C(=O)O (stereo not drawn) [Compound 1e] |
| 0.38 | COc1c(C)c(OC(=O)c2c(C)c(C)c(OC(=O)c3c(C)c(CO)c(O)c(C)c3O)c(C)c2OC)c(C)c(C)c1C(=O)O [Compound 1f] |
| 0.34 | COCc1c(C)c(C(=O)Oc2c(C)c(C)c(C(=O)Oc3c(C)c(C)c(C(=O)O)c(OC)c3C)c(OC)c2C)c(O)c(C)c1O [Compound 1g] |
| 3.9 | COCc1c(C)c(C(=O)Oc2c(C)c(C)c(C(=O)O)c(OC)c2C)c(OC)c(C)c1O [Compound 1i] |
| 0.3 | COc1c(C)c(OC(=O)c2c(C)c(C)c(OC(=O)c3c(C)c(CN[C@H](C)c4ccccc4)c(O)c(C)c3O)c(C)c2OC)c(C)c(C)c1C(=O)O [Compound 6b, 4-[4'-[5"-(Sec-phenethylaminomethyl)-2",4"-dihydroxy-3",6"-dimethylphenylcarboxy]-2'-methoxy-3',5',6'-trimethyl]phenylcarboxy-2-methoxy-3,5,6-trimethyl benzoic acid] |
